Laboratory results as given in patent US20030171393A1, “Drugs for sex dysfunctions” (priority 2000, published 2003).
Counter-ions that a name gives are not always drawn.

How the values were obtained:
aorta = experiment: Relaxation in vitro of aorta tissue precontracted with phenylephrine (undesired hypotensive effect); type: cell-based, White New Zealand rabbits; details: tissue precontracted with phenylephrine 10 μM
From the text: (§1) The relaxing effect of the tested drugs on carvernous body tissues has been evaluated with experiments in vitro as a measure of the inhibiting action on the impotence, and on aorta tissues as expression of the undesired hypotensive effect.
(§2) White New Zealand rabbits were sacrificed, cavernous body and aorta specimens were taken and suitably prepared for the determination of the myorelaxing activity in vitro, according to the procedure described by J. Jeremy (Br. J. Urology 79,958-63,1997).
(§3) The tissues were precontracted with phenylephrine (10 μM) and the relaxation was determined in the presence of the compounds object of the invention.
(§4) The 2-(acetyloxy)benzoic acid 6-(nitroxy methyl)-2-methylpyridyl ester hydrochloride (NCX 4050) is prepared as described in patent application PCT/EP 00/01454 (Ex. 1) , the sildenafil nitrate has been prepared as described in patent application WO 99/67231 (Ex. 3). The products used in the experiment were dissolved in dimethylsulphoxide, except sodium nitroprussiate which was dissolved in distilled water.

cavernous body = experiment: Relaxation in vitro of cavernous body tissue precontracted with phenylephrine; type: cell-based, White New Zealand rabbits; details: for Cavernous body % relaxation: tissue precontracted with phenylephrine 10 μM; for Power ratio: ratio between myorelaxing effect on cavernous body and effect on aorta
From the text: as §1, §2, §3, §4

[1] = test system: aorta tissues pretreated with sodium nitroprussiate; experiment: Aorta relaxation in vitro in the presence of the NO-donor sodium nitroprussiate; type: cell-based, white New Zealand rabbits; details: 10^−7 M; for Aorta relaxation: strips first treated with sodium nitroprussiate 10^−7 M, percentage with respect to the initial sodium nitroprussiate treatment
Method: The experiment was carried out as described in the previous Example, by using aorta tissues taken from white New Zealand rabbits.

Compound | Aorta % (aorta; concentration 10^-6 M) | Cavernous body % relaxation (cavernous body; concentration 10^-6 M) | Power ratio (cavernous body; concentration 10^-6 M) | Aorta % (aorta; concentration 3 × 10^-5 M) | Aorta relaxation [1] | Cavernous body % relaxation (cavernous body; concentration 3 × 10^-5 M) | Strengthening of the relaxing effect induced by sodium nitroprussiate (hypotensive effect), in words ([1]; aorta strips pretreated with sodium nitroprussiate 10^−7 M) | Power ratio (cavernous body; concentration 10^-6 M, listed as sildenafil nitrate)
CC(=O)Oc1ccccc1C(=O)Oc1ccc(CO[N+](=O)[O-])nc1C.Cl [NCX 4050, 2-(acetyloxy)benzoic acid 6-(nitroxymethyl)-2-methylpyridyl ester hydrochloride] | 80% | 80% | 1 | – | – | – | – | –
CCCc1nn(C)c2c(=O)[nH]c(-c3cc(S(=O)(=O)N4CCN(C)CC4)ccc3OCC)nc12 [Sildenafil Citrate, sildenafil citrate, reference compound] | – | – | – | 75% | 170% | 50% | – | –
sildenafil nitrate | 20% | 100% | 5 | – | 120% | – | lower strengthening of the relaxing effect induced by sodium nitroprussiate compared with the sildenafil citrate | clearly in favour of the myorelaxing effect
